Among the data in US9340590B2 (priority 2011, dated 2016) are IC50 values, retold here.

The structures appear in SMILES notation. Like-named read-outs stand apart in the source and are kept apart here. Positions of bridges follow the written chain, without caps; N, C: chain ends. Non-standard residues stand in square brackets, D forms with d. Residues, ends and D or L forms follow the SMILES beside them. Trp(1-Me) = Cn1cc(C[C@H](N)C(=O)O)c2ccccc21

Assay in all cases: cell-based
One test deals with hNav1.7 (Homo sapiens, UniProt Q15858). The test is classed as cell-based. To be noted: IonWorks Quattro, use-dependent protocol, hNav1.7; read-out: IWQ Use Nav1.7.
In another test the target is hNav1.5 (Homo sapiens, UniProt Q14524).
For a further test, the target named is hNav1.3 (Homo sapiens, UniProt Q9NY46). To be noted: IonWorks Quattro, use-dependent protocol, hNav1.3; read-out: IWQ Use Nav1.3. Background: In patch-clamp work, channel activity is measured electrically.
Setting [1] is: IonWorks Quattro, use-dependent protocol, hNav1.5, read-out: IWQ Use Nav1.5.

hNav1.5, sequence (Q14524 whole entry, looked up): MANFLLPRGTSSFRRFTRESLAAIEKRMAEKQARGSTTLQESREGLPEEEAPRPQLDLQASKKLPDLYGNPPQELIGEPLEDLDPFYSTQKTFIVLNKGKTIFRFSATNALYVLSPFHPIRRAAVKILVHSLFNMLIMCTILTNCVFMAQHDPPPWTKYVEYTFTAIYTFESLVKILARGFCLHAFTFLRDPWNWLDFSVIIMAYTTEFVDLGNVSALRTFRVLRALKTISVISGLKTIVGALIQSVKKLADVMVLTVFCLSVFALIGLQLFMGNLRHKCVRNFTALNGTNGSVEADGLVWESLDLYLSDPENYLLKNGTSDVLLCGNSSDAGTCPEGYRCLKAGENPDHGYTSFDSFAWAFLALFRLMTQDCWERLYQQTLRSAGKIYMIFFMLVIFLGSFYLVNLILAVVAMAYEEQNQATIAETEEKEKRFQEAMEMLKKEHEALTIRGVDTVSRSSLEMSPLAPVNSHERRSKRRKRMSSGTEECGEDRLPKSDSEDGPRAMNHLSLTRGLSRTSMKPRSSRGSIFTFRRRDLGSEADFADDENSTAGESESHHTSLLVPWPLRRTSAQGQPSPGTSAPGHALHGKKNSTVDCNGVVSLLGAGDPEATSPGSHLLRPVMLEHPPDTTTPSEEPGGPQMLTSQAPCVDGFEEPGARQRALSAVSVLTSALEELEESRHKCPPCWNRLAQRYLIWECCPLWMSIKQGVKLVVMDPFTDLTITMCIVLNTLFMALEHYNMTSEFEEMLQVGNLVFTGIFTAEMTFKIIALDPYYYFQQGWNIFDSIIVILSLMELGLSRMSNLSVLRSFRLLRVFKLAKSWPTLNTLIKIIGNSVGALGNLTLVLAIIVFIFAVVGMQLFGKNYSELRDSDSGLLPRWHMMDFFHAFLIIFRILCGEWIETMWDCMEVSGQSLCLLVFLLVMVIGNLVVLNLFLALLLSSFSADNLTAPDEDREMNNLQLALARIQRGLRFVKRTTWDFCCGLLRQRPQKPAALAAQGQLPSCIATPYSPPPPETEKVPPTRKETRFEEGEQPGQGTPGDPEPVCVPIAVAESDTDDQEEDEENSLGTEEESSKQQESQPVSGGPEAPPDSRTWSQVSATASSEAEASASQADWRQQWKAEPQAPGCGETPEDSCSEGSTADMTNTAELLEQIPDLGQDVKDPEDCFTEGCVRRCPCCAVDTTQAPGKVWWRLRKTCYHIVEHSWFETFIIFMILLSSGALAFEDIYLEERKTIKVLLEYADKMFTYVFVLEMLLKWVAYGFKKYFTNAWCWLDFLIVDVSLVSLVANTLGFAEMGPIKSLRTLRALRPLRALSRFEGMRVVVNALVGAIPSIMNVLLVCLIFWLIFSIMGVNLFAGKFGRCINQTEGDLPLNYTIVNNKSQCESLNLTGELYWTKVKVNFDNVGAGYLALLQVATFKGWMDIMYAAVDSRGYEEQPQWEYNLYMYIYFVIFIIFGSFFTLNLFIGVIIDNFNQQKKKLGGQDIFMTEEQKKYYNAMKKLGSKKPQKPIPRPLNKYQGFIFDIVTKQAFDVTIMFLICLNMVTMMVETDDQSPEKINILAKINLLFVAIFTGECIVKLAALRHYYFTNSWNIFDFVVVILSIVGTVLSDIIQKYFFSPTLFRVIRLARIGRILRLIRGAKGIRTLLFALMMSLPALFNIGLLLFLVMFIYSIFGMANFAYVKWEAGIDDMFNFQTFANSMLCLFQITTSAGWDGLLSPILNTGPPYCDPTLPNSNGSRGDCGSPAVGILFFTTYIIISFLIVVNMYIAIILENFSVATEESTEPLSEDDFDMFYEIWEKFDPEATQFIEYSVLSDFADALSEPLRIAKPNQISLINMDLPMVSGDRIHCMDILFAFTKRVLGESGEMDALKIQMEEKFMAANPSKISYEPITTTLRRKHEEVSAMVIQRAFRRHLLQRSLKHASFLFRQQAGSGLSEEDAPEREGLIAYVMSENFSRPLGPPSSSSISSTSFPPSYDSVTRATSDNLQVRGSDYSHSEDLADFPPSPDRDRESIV
hNav1.3, sequence (Q9NY46 whole entry, looked up): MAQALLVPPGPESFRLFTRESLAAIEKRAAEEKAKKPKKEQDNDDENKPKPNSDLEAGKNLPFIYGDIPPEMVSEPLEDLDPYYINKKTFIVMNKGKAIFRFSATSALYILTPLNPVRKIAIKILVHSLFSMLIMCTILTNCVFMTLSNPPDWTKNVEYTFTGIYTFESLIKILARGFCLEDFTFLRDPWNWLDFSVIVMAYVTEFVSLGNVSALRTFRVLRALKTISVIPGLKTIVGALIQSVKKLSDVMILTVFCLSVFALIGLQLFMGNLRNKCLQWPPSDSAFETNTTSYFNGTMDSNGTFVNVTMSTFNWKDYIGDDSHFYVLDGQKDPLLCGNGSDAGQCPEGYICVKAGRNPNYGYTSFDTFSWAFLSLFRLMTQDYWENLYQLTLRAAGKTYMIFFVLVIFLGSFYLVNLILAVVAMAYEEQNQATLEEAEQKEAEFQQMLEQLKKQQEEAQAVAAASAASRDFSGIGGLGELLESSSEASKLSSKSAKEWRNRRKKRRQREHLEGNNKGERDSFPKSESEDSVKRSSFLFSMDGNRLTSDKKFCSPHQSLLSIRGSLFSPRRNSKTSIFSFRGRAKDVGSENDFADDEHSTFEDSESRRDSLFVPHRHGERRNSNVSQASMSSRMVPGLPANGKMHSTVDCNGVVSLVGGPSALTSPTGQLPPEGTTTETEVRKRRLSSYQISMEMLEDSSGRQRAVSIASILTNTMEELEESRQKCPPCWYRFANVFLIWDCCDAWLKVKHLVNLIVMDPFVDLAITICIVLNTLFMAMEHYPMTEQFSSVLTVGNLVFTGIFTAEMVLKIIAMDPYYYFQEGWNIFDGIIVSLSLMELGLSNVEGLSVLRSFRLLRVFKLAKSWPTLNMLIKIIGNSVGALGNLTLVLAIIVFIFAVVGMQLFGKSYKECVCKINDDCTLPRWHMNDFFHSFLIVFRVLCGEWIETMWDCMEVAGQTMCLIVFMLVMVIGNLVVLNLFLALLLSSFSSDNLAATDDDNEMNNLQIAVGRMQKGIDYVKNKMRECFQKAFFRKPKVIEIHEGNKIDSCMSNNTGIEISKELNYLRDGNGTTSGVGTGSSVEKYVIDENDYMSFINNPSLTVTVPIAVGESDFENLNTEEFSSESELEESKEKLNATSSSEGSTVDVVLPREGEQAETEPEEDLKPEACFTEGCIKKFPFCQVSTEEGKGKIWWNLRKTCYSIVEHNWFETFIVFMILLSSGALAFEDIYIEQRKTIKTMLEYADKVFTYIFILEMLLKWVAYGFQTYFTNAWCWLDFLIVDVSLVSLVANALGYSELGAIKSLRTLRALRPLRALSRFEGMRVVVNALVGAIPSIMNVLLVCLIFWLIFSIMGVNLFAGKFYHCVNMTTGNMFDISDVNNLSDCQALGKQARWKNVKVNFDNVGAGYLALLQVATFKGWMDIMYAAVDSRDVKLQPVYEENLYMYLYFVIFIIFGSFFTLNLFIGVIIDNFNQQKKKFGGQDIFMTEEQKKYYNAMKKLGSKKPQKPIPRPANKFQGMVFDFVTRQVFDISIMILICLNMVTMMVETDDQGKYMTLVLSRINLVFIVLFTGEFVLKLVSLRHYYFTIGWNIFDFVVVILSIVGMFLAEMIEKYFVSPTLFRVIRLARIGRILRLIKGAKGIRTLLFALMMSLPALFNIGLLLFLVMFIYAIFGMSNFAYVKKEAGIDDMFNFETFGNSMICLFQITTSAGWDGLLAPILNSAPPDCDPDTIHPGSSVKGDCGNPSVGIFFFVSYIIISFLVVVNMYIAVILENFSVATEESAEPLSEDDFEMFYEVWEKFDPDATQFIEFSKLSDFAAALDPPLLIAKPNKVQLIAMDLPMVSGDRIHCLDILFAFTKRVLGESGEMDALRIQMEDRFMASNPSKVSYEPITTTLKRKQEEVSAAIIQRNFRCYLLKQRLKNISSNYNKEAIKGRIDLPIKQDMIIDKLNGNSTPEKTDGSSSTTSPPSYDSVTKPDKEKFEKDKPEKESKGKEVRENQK

Take `CC[C@H](C)[C@@H]1NC(=O)[C@@H]2CSSC[C@@H]3NC(=O)[C@H](C(C)C)NC(=O)[C@H](CC(C)C)NC(=O)[C@H](CC(N)=O)NC(=O)[C@@H]4CCCN4C(=O)[C@H](CCCNC(=N)N)NC(=O)[C@H](CSSC[C@H](NC(=O)[C@@H](N)CC(=O)O)C(=O)N[C@@H](CC(C)C)C(=O)NCC(=O)N[C@@H](Cc4ccccc4Cl)C(=O)N[C@@H](CCSC)C(=O)N[C@@H](CCCNC(=N)N)C(=O)N[C@@H](CCCCN)C(=O)N2)NC(=O)[C@H](CSSC[C@@H](C(=O)N[C@@H](CCCCN)C(=O)N[C@@H](Cc2ccc(O)cc2)C(=O)N[C@H](C(=O)N[C@@H](Cc2ccccc2)C(N)=O)C(C)C)NC(=O)[C@H](Cc2c[nH]c4ccccc24)NC(=O)[C@H](CCCCN)NC(=O)[C@H](Cc2c[nH]cn2)NC(=O)[C@H]([C@@H](C)O)NC(=O)[C@H](CCCNC(=N)N)NC(=O)[C@H](CO)NC3=O)NC(=O)[C@H](CCCCN)NC(=O)[C@H](CC(=O)O)NC(=O)[C@H](CC(N)=O)NC(=O)[C@H](CC(=O)O)NC(=O)[C@@H]2CCCN2C1=O` [compound 689]: the values for the IC50 on hNav1.7, at hNav1.5 (setting [1]) and at hNav1.3 were 130 nM, greater than 5000 nM and 110 nM, respectively.
Take `CC[C@H](C)[C@@H]1NC(=O)[C@@H]2CSSC[C@@H]3NC(=O)[C@H](C(C)C)NC(=O)[C@H](CC(C)C)NC(=O)[C@H](CC(N)=O)NC(=O)[C@@H]4CCCN4C(=O)[C@H](CCCNC(=N)N)NC(=O)[C@H](CSSC[C@H](NC(=O)[C@@H](N)CC(=O)O)C(=O)N[C@@H](CC(C)C)C(=O)NCC(=O)N[C@@H](CCc4ccccc4)C(=O)N[C@@H](CCSC)C(=O)N[C@@H](CCCNC(=N)N)C(=O)N[C@@H](CCCCN)C(=O)N2)NC(=O)[C@H](CSSC[C@@H](C(=O)N[C@@H](CCCCN)C(=O)N[C@@H](Cc2ccc(O)cc2)C(=O)N[C@H](C(=O)N[C@@H](Cc2ccccc2)C(N)=O)C(C)C)NC(=O)[C@H](Cc2c[nH]c4ccccc24)NC(=O)[C@H](CCCCN)NC(=O)[C@H](Cc2c[nH]cn2)NC(=O)[C@H]([C@@H](C)O)NC(=O)[C@H](CCCNC(=N)N)NC(=O)[C@H](CO)NC3=O)NC(=O)[C@H](CCCCN)NC(=O)[C@H](CC(=O)O)NC(=O)[C@H](CC(N)=O)NC(=O)[C@H](CC(=O)O)NC(=O)[C@@H]2CCCN2C1=O` [compound 690]: the IC50 at hNav1.7 is 90 nM; against hNav1.5 (IWQ Use Nav1.5), greater than 5000 nM; on hNav1.3, 180 nM.
As to `CC[C@H](C)[C@@H]1NC(=O)[C@@H]2CSSC[C@@H]3NC(=O)[C@H](C(C)C)NC(=O)[C@H](CC(C)C)NC(=O)[C@H](CC(N)=O)NC(=O)[C@@H]4CCCN4C(=O)[C@H](CCCNC(=N)N)NC(=O)[C@H](CSSC[C@H](NC(=O)[C@@H](N)CC(=O)O)C(=O)N[C@@H](CC(C)C)C(=O)NCC(=O)N[C@@H](C)C(=O)N[C@@H](CCSC)C(=O)N[C@@H](CCCNC(=N)N)C(=O)N[C@@H](CCCCN)C(=O)N2)NC(=O)[C@H](CSSC[C@@H](C(=O)N[C@@H](CCCCN)C(=O)N[C@@H](Cc2cn(C)c4ccccc24)C(=O)N[C@H](C(=O)N[C@@H](Cc2ccccc2)C(N)=O)C(C)C)NC(=O)[C@H](Cc2c[nH]c4ccccc24)NC(=O)[C@H](CCCCN)NC(=O)[C@H](Cc2c[nH]cn2)NC(=O)[C@H]([C@@H](C)O)NC(=O)[C@H](CCCNC(=N)N)NC(=O)[C@H](CO)NC3=O)NC(=O)[C@H](CCCCN)NC(=O)[C@H](CC(=O)O)NC(=O)[C@H](CC(N)=O)NC(=O)[C@H](CC(=O)O)NC(=O)[C@@H]2CCCN2C1=O` [compound 692] (H-DCLGAMRKCIPDNDKCCRPNLVCSRTHKWCK[Trp(1-Me)]VF-NH2; disulfide 2-17, 9-23, 16-30), the IC50 on hNav1.7 is 180 nM; on hNav1.5 (setting [1]), greater than 5000 nM; at hNav1.3 it was 630 nM.
`CC[C@H](C)[C@@H]1NC(=O)[C@@H]2CSSC[C@@H]3NC(=O)[C@H](C(C)C)NC(=O)[C@H](CC(C)C)NC(=O)[C@H](CC(N)=O)NC(=O)[C@@H]4CCCN4C(=O)[C@H](CCCNC(=N)N)NC(=O)[C@H](CSSC[C@H](NC(=O)[C@@H](N)CC(=O)O)C(=O)N[C@@H](CC(C)C)C(=O)NCC(=O)N[C@@H](CCSC)C(=O)N[C@@H](CCSC)C(=O)N[C@@H](CCCNC(=N)N)C(=O)N[C@@H](CCCCN)C(=O)N2)NC(=O)[C@H](CSSC[C@@H](C(=O)N[C@@H](CCCCN)C(=O)N[C@@H](Cc2cn(C)c4ccccc24)C(=O)N[C@H](C(=O)N[C@@H](Cc2ccccc2)C(N)=O)C(C)C)NC(=O)[C@H](Cc2c[nH]c4ccccc24)NC(=O)[C@H](CCCCN)NC(=O)[C@H](Cc2c[nH]cn2)NC(=O)[C@H]([C@@H](C)O)NC(=O)[C@H](CCCNC(=N)N)NC(=O)[C@H](CO)NC3=O)NC(=O)[C@H](CCCCN)NC(=O)[C@H](CC(=O)O)NC(=O)[C@H](CC(N)=O)NC(=O)[C@H](CC(=O)O)NC(=O)[C@@H]2CCCN2C1=O` [compound 693] (H-DCLGMMRKCIPDNDKCCRPNLVCSRTHKWCK[Trp(1-Me)]VF-NH2; disulfide 2-17, 9-23, 16-30): the IC50 on hNav1.7 was 46 nM; on hNav1.5 (setting [1]), greater than 5000 nM; at hNav1.3, 100 nM.
Take `CC[C@H](C)[C@@H]1NC(=O)[C@@H]2CSSC[C@@H]3NC(=O)[C@H](C(C)C)NC(=O)[C@H](CC(C)C)NC(=O)[C@H](CC(N)=O)NC(=O)[C@@H]4CCCN4C(=O)[C@H](CCCNC(=N)N)NC(=O)[C@H](CSSC[C@H](NC(=O)[C@@H](N)CC(=O)O)C(=O)N[C@@H](CC(C)C)C(=O)N[C@@H](CCCNC(=N)N)C(=O)N[C@@H](CCSC)C(=O)N[C@@H](CCSC)C(=O)N[C@@H](CCCNC(=N)N)C(=O)N[C@@H](CCCCN)C(=O)N2)NC(=O)[C@H](CSSC[C@@H](C(=O)N[C@@H](CCCCN)C(=O)N[C@@H](Cc2ccc(O)cc2)C(=O)N[C@H](C(=O)N[C@@H](Cc2ccccc2)C(N)=O)C(C)C)NC(=O)[C@H](Cc2c[nH]c4ccccc24)NC(=O)[C@H](CCCCN)NC(=O)[C@H](Cc2c[nH]cn2)NC(=O)[C@H]([C@@H](C)O)NC(=O)[C@H](CCCNC(=N)N)NC(=O)[C@H](CO)NC3=O)NC(=O)[C@H](CCCCN)NC(=O)[C@H](CC(=O)O)NC(=O)[C@H](CC(N)=O)NC(=O)[C@H](CC(=O)O)NC(=O)[C@@H]2CCCN2C1=O` [compound 694] (H-DCLRMMRKCIPDNDKCCRPNLVCSRTHKWCKYVF-NH2; disulfide 2-17, 9-23, 16-30): the IC50 was 80 nM on hNav1.7, greater than 5000 nM on hNav1.5 (setting [1]) and 290 nM at hNav1.3.
The like results for `CC[C@H](C)[C@@H]1NC(=O)[C@@H]2CSSC[C@@H]3NC(=O)[C@H](C(C)C)NC(=O)[C@H](CC(C)C)NC(=O)[C@H](CC(N)=O)NC(=O)[C@H](CO)NC(=O)[C@H](CCCNC(=N)N)NC(=O)[C@H](CSSC[C@H](NC(=O)[C@@H](N)CC(=O)O)C(=O)N[C@@H](CC(C)C)C(=O)NCC(=O)N[C@@H](Cc4ccccc4)C(=O)N[C@@H](CCSC)C(=O)N[C@@H](CCCNC(=N)N)C(=O)N[C@@H](CCCCN)C(=O)N2)NC(=O)[C@H](CSSC[C@@H](C(=O)N[C@@H](CCCCN)C(=O)N[C@@H](Cc2cn(C)c4ccccc24)C(=O)N[C@H](C(=O)N[C@@H](Cc2ccccc2)C(N)=O)C(C)C)NC(=O)[C@H](Cc2c[nH]c4ccccc24)NC(=O)[C@H](CCCCN)NC(=O)[C@H](Cc2c[nH]cn2)NC(=O)[C@H]([C@@H](C)O)NC(=O)[C@H](CCCNC(=N)N)NC(=O)[C@H](CO)NC3=O)NC(=O)[C@H](CCCCN)NC(=O)[C@H](CC(=O)O)NC(=O)[C@H](CC(N)=O)NC(=O)[C@H](CC(=O)O)NC(=O)[C@@H]2CCCN2C1=O` [compound 695] (H-DCLGFMRKCIPDNDKCCRSNLVCSRTHKWCK[Trp(1-Me)]VF-NH2; disulfide 2-17, 9-23, 16-30) were, in that order, 30 nM, greater than 5000 nM and 30 nM.
